Series [1] has as its system peripheral blood mononuclear cells (PBMC). Put plainly: MTT cell viability assay, PBMC. The class given is cell-based. As to conditions: PBMC, 24 h exposure. Here is the method: (§1) A549 human lung carcinoma and HeLa human cervical carcinoma cell lines were cultured in Dulbecco’s Modified Eagle Medium (DMEM). MCF7 human breast cancer and leukemic (K562, HL-60, MT-2 and Jurkat) cells, and PBMC (Precision Bioservices, Frederic, MD, USA) were cultured in RPMI 1640. All media were purchased from FUJIFILM Wako (Osaka, Japan) and supplemented with 10% fetal bovine serum (FBS) (Sigma-Aldrich, St. Louis, MO, USA) and 89 μg/mL streptomycin (Meiji Seika Pharma, Tokyo, Japan) at 37 °C in a humid atmosphere and 5% CO2. In experiments, all cancer cell lines and PBMC were cultured in 24-well and 96-well plates (Iwaki brand Asahi Glass, Chiba, Japan) at 2 × 10^4 cells/mL and 1 × 10^6 cells/mL concentrations, respectively for 24 h.
(§2) The cells were exposed to various concentrations (1–100 μM) of the compounds for 24 h at 37 °C. The cells were then stained with MTT solution and incubated for additional 4 h. At the end of this period, supernatants were removed and 100 μL DMSO was added to each well to solubilize the formazan crystals. The absorbance of the solution was determined on the Infinitive M1000 (Tecan, Mannedorf, Switzerland) plate reader at a wavelength of 550 nm with background subtraction at 630 nm.

Series [2] concerns CML cell line K562. Briefly: MTT cell viability assay, K562. The class given is cell-based, human. The following applies: for IC50: MTT, 24 h exposure, read-out: IC50 Values, K562 Cell Line; for SI (selectivity index): ratio of the IC50 between PBMC and K562 cells. The method, then: A549 human lung carcinoma and HeLa human cervical carcinoma cell lines were cultured in Dulbecco’s Modified Eagle Medium (DMEM). […] In experiments, all cancer cell lines and PBMC were cultured in 24-well and 96-well plates (Iwaki brand Asahi Glass, Chiba, Japan) at 2 × 10^4 cells/mL and 1 × 10^6 cells/mL concentrations, respectively for 24 h.
The cells were then stained with MTT solution and incubated for additional 4 h. At the end of this period, supernatants were removed and 100 μL DMSO was added to each well to solubilize the formazan crystals. The absorbance of the solution was determined on the Infinitive M1000 (Tecan, Mannedorf, Switzerland) plate reader at a wavelength of 550 nm with background subtraction at 630 nm.
On the technique in general: Tetrazolium dyes change colour on reduction, which living cells bring about.

The target in series [3] is T1, ABL1 kinase (Homo sapiens, UniProt P00519).
T1 construct: purchased Promega, Madison, WI, USA
T1 sequence (P00519 whole entry): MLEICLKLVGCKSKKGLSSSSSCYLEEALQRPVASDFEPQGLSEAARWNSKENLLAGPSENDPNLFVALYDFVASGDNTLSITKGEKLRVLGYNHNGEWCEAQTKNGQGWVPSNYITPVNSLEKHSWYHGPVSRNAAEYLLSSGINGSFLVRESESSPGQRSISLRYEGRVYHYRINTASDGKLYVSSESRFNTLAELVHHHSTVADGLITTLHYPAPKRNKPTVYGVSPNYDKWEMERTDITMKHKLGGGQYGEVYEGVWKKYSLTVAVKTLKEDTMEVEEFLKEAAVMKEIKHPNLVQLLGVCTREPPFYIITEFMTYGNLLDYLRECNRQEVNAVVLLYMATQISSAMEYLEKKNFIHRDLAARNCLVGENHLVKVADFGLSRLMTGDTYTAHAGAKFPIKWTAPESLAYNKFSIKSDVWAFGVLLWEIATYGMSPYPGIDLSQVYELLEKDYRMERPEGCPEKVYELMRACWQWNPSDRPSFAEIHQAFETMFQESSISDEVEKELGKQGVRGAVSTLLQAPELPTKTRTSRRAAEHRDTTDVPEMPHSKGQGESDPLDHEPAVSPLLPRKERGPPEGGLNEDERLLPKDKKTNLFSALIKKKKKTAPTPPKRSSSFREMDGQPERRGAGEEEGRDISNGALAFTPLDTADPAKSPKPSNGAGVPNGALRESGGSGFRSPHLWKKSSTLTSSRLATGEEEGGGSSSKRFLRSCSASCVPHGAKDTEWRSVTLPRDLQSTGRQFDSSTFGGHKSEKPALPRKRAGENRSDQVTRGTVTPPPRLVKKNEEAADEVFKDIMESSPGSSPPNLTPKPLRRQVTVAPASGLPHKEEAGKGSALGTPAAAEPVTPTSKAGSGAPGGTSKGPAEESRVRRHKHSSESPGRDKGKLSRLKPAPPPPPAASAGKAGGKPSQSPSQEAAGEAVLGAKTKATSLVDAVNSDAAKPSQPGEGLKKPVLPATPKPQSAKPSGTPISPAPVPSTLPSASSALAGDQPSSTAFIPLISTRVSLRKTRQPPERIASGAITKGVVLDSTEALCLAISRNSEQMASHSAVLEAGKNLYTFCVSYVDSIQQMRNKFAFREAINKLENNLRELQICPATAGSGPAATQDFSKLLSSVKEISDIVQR
The following applies: a value in the previous paper; cited from earlier work.

For series [4], the system named is K562 cells. Put plainly: Cell death detection (Hoechst 33342/annexin V/ethidium homodimer III staining). The following applies: K562, IC50 concentration, 8 h. The class given is cell-based, human. The method, then: The cells were then briefly washed twice with 1 × binding buffer. A staining solution containing 50 μL of 1 × binding buffer and 5 μL of FITC-Annexin V solution, 5 μL of ethidium homodimer III solution, or 5 μL of Hoechst 33342 solution was added, and incubated for 15 min at room temperature in the dark. Then, the cells were washed with 1 × binding buffer, and analyzed by the all-in-one fluorescence microscope Biorevo Fluorescence BZ-9000 (Keyence, Osaka, Japan). The number of healthy cells (Hoechst 33342), apoptotic cells (Annexin V), late apoptotic or necrotic cells (Annexin V and Ethidium homodimer III) and necrotic cells (Ethidium homodimer III) were counted as previously described.

The test system of series [5] is MT-2. Put plainly: MTT cell viability assay, MT-2. The class given is cell-based. The following applies: Homo sapiens, MT2, 24 h exposure. The method, then: as §1, §2
For series [6], the system named is MCF7 human breast cancer. Briefly: MTT cell viability assay, MCF7. Type of series: cell-based. As to conditions: 24 h exposure. Here is the method:
as §1, §2

Series [7] deals with A549 human lung carcinoma. Put plainly: MTT cell viability assay, A549. Type of series: cell-based. The following applies: for IC50: Homo sapiens, A549, MTT, 24 h exposure. Here is the method: as §1, §2
The test system of series [8] is HeLa human cervical carcinoma. Put plainly: MTT cell viability assay, HeLa. Type of series: cell-based. The following applies: 24 h exposure. Here is the method:
as §1, §2

For series [9], the target named is T1, ABL1 kinase. Briefly: ABL1 kinase inhibition (ADP-Glo Kinase Assay). The class given is biochemical. The following applies: for IC50: ADP-Glo, 1 h incubation, room temperature. The method, then: The ABL1 kinase profiling assay protocol was applied according to the manufacturer`s instructions (Promega, Madison, WI, USA) with the modification proposed in [36]. In this system, the ABL1 kinase and its substrate were diluted with 95 µL 2.5x Kinase Buffer and 15 µL of 100 µM ATP solutions, respectively. Then, the reaction of ABL1 kinase was performed using 2 µL of the compound solution at varying concentrations (0.1–30 µM), 4 µL of kinase working stock, and 4 µL of ATP/substrate working stock in the 384-well plate. After 1 h of incubation at room temperature, the activity of the ABL1 kinase was detected using the ADP-Glo Kinase Assay (Promega, Madison, WI, USA) and the inhibitory kinase activity of compounds in dose-response mode was measured by the Infinitive M1000 luminescence plate reader (Tecan, Groding, Austria).
A general note: ADP-Glo turns the ADP formed in a reaction into a luminescent signal.

Series [10] relates to Jurkat. Put plainly: MTT cell viability assay, Jurkat. The class given is cell-based. As to conditions: Homo sapiens, 24 h exposure. The method, then: as §1, §2
The test system of series [11] is HL-60. Briefly: MTT cell viability assay, HL-60. The class given is cell-based. The following applies: Homo sapiens, 24 h exposure. Here is the method:
as §1, §2

In series [12] the test system is ERK1/2 and phosphorylated ERK1/2 in K562 cells. Briefly: Immunoblot analysis of ERK signaling in K562. The class given is cell-based, human. The following applies: K562, 10 μM, 6 h. The method, then:
After 6 h of treatment at 37 °C, the cells were lysed in PBS-Laemmli sample buffer and then, immunoblot analysis was conducted using phospho-specific-p44/42 MAPK (Erk1/2) (Thr202/Tyr204) (D13.14.4E) XP Rabbit mAb (1:1000) (Cell Signaling Technology, Danvers, MA, USA) or anti-β-actin clone AC-15 (Sigma-Aldrich, St. Louis, MO, USA). For immunoreactivity detection, the chemiluminescence method was performed as previously described. The band intensity was measured using the ImageJ software (NIH, Bethesda, MD, USA).
On the technique in general: In western blotting, separated proteins are transferred to a membrane and probed.

“Also recorded” adds a separate entry of the source. Like-named read-outs stand apart in the source and are kept apart here.

The source of these data is PMC6804044, “Design, Synthesis and Biological Evaluation of Pentacyclic Triterpene Derivatives: Optimization of Anti-ABL Kinase Activity” (Molecules, 2019).

As usually defined, the IC50 is the midpoint of a concentration-inhibition curve. The melting point is the temperature of the solid-liquid transition.

With `CC1(C)CC[C@]2(C(=O)OCc3ccccc3)CC[C@]3(C)C(=CC[C@@H]4[C@@]5(C)CC[C@H](O)[C@@](C)(C=O)[C@@H]5CC[C@]43C)[C@@H]2C1` [Compound 1c, benzyl ester of gypsogenin], the IC50 in series [1] is above 100 µM; in [2] (Homo sapiens, K562, 24 h), 8.94 ± 1.73 µM; in series [3], 8.71 ± 1.14 µM. The “SI (selectivity index)” value in series [2] was above 11.19.
For the compound `CC1(C)CC[C@]2(C(=O)OCc3cc(C(F)(F)F)cc(C(F)(F)F)c3)CC[C@]3(C)C(=CC[C@@H]4[C@@]5(C)CC[C@H](O)[C@@](C)(C=O)[C@@H]5CC[C@]43C)[C@@H]2C1` [GP2, Gypsogenin 3,5-bis(trifluromethyl)benzyl ester], the melting point was 85 to 87 °C. In [4], the “apoptotic effects on CML cell line” value came to 24% and the late apoptotic/necrotic effects was determined as 4.5%. In [1], this compound displayed a 50% inhibitory concentration (IC50) of 52.8 ± 3.82 µM. In addition, the IC50 in [2] (Homo sapiens, K562, 24 h) was 4.78 ± 1.25 µM. Moreover, the “SI (selectivity index)” value in series [2] came out at 11.04. The compound further came in with an IC50 in [5] of 36.8 ± 4.21 µM. For the same compound, the IC50 in [6] was found to be 51.6 ± 4.75 µM. For the same compound, in [7], the “activity against A549 cell line at 100 µM” value was “inactive” and the IC50 was above 100 µM. Besides, the IC50 in [8] worked out at 35.3 ± 2.84 µM. The compound further came in with an IC50 in series [9] of 7.19 ± 0.65 µM. Also, the IC50 in series [10] turned out to be 9.14 ± 0.71 µM. The compound further came in with an IC50 in series [11] of 5.27 ± 0.42 µM. Besides, in [12], the “ERK phosphorylation (phosphorylated ERK1/2)” value (“ERK phosphorylation” below) was “inhibitory effect of ERK phosphorylation” and the “amount of ERK1/2” value was “moderately decreased”.
In turn, `CC1(C)CC[C@]2(C(=O)OCc3ccc(C#N)cc3)CC[C@]3(C)C(=CC[C@@H]4[C@@]5(C)CC[C@H](O)[C@@](C)(C=O)[C@@H]5CC[C@]43C)[C@@H]2C1` [GP5, Gypsogenin 4-cyanobenzyl ester] returned a melting point of 175 to 177 °C. Also, in series [4], the “apoptotic effects on CML cell line” value was 9.5% and the late apoptotic/necrotic effects was 5.1%. In series [1], this compound registered an IC50 of 25.6 ± 2.18 µM. Besides, the half-inhibitory concentration (IC50) in series [2] (Homo sapiens, K562, 24 h) came to 3.19 ± 1.21 µM. The “SI (selectivity index)” value in series [2] was determined as 8.03. The compound also yielded a half-inhibitory concentration (IC50) in [5] of 7.26 ± 0.97 µM. 15.3 ± 2.11 µM corresponded to half-maximal inhibition in series [6] (IC50). For the same compound, the IC50 in [7] was found to be 24.6 ± 1.94 µM. Besides, 5.66 ± 0.32 µM corresponded to half-maximal inhibition in [8] (IC50). Further, inhibition in series [9] was half-maximal at 6.16 ± 0.63 µM (IC50). In [10], this compound yielded an IC50 of 4.83 ± 0.35 µM. This compound also came in with an IC50 in series [11] of 4.36 ± 0.28 µM. For the same compound, in series [12], the “ERK phosphorylation” value was “inhibitory effect of ERK phosphorylation” and the “amount of ERK1/2” value is given as “moderately decreased”.
In the case of `CC1(C)CC[C@]2(C(=O)OCc3ccccc3)CC[C@]3(C)C(=CC[C@@H]4[C@@]5(C)CC[C@H](O)C(C)(C)[C@@H]5CC[C@]43C)[C@@H]2C1` [PT5, Oleanolic acid benzyl ester], in [4], the “apoptotic effects on CML cell line” value is 14%. The compound further gave a late apoptotic/necrotic effects in series [4] of 11%. Moreover, the IC50 is 50.2 ± 4.58 µM in series [1]; around 5.5 µM in series [2] (Homo sapiens, K562, 24 h); 5.46 ± 1.51 µM in series [2]; 34.7 ± 3.85 µM in series [5]; 53.9 ± 6.46 µM in series [6]; above 100 µM in [7]. The IC50 amounted to 67 ± 4.19 µM in [8], 1.44 ± 0.12 µM in series [9], 13.8 ± 1.58 µM in [10] and 15.7 ± 1.36 µM in series [11]. The “SI (selectivity index)” value in series [2] worked out at 9.19. Further, the “activity against A549 cell line at 100 µM” value in series [7] is “inactive”. Also, the “ABL kinase IC50 potency relative to 1c” value in series [9] (fold vs 1c) was “six times stronger; also recorded: about sixfold”. Further, the “ERK phosphorylation” value in series [12] was “inhibitory effect of ERK phosphorylation”. The “amount of ERK1/2” value in series [12] is listed as “moderately decreased”.
